Measurements taken from patent publication US20010011081A1, “Pharmaceutical composition comprising L- carnitine or alkanoyl L-carnitine for the prevention and treatment of diseases brought about by lipid metabolism disorders” (Sigma-Tau Industrie Parmaceutiche Riunite S.p.A., priority 1995, published 2001).
“Also recorded” adds a separate entry of the source.

Columns and labels:
[1] = system: Wistar rats with hypercholesterolaemia induced by diet; assay: Experimental hypercholesterolaemia test (diet-induced, six weeks); type: in vivo; conditions: serum
Protocol: The results of tests conducted in Wistar rats with hypercholesterolaemia induced by diet according to the method described by C. […] Treatment both with L-carnitine and with calcium hydroxycitrate or with Garcinia cambogia extract, or with a combination of these products, was initiated together with a hypercholesterolaemia-inducing diet and continued for six weeks consecutively. At the end of this period, the assay was performed on the serum of the control animals and on that of the treated animals according to the method described by P. Roschlan (Clin. Chem. Clin. Biochem. 12, 403, 1975).

[2] = system: fructose-induced hypertriglyceridaemia; assay: Experimental hypertriglyceridaemia test (oral fructose); type: in vivo, Wistar rats; conditions: for EXPERIMENTALLY-INDUCED HYPERTRIGYCERIDAEMIA (serum triglycerides): 5 days before and two hours after 3 g fructose
Protocol: In these tests, male Wistar rats serum triglyceride elevation was induced experimentally by means of the oral administration of fructose according to the method disclosed by L. A. V. Carlson (J. Atheroscler. Res. 8, 667, 1968; Atherosclerosis 16, 349, 1972). In the 5-day period prior to administration of 3 g of fructose, the rats, divided into groups, were treated with L-carnitine or its derivatives or with calcium hydroxycitrate or Garcinia cambogia extract at different doses, or with various combinations of these products.
The administration of these products was then repeated two hours after administration of fructose, and 5 hours later all animals were sacrificed. Triglyceride assay was then performed according to the method of R. K. Donabedian (Clin. Chem 20, 632, 1974).

[3] = system: experimentally obese rats; assay: Tests in experimentally obese rats on a lipogenic diet for fifteen days (food consumption, body weight, serum triglycerides, epididymal fat); type: in vivo, Wistar rats; conditions: for MEAN DAILY FOOD CONSUMPTION (g) PER ANIMAL After 15 days / MEAN DAILY FOOD CONSUMPTION (g) PER ANIMAL Before treatment / Final body weight increase (g) AFTER 15 DAY-TREATMENT / SERUM Triglycerides AFTER 15 DAY-TREATMENT / Epididimal fat AFTER 15 DAY-TREATMENT: lipogenic diet
Protocol: Male Wistar rats aged about 2 months were fed on a lipogenic diet (50% glucose, 20% casein, 4% cellulose, 5% salt mixture, 1% hazel nut oil, 18% starch, 1% vitamin mixture).
This diet was administered for fifteen days consecutively to different groups of rats, one of which served as a control group, whereas in the other groups the diet was administered together with calcium hydroxycitrate (1%-2%) or Garcinia cambogia extract (2%-4%) or L-carnitine (2%-4%) or acetyl L-carnitine or propionyl L-carnitine at the same doses, or together with various combinations of these products at the same doses. At the end of the fifteenth day of treatment, food consumption was evaluated in treated rats vs. controls and increases in body weight and in serum triglycerides and epididymal fat were measured.

[4] = system: atherosclerotic vascular lesions; assay: Experimental atherosclerosis test (atherogenic diet for six weeks); type: in vivo, Wistar rats
From the text: Also in atherosclerotic vascular lesions induced experimenatlly according to the method of M. R. Malinow (Atherosclerosis 48, 105, 1983), with administration of an atherogenic diet (24% casein, 10% cotton oil, 5% salt, 60% sugar, 1% cholesterol, Vit D2 200 mUST/g of diet) for six weeks consecutively to different groups of male Wistar rats, it has been shown that the combination of carnitines plus calcium hydroxycitrate or Garcinia cambogia extract is capable of substantially potentiating the anti-atherogenic effect.
This was assessed by measuring the thickness of the abdominal aorta and the intensity of staining induced by Sudan IV using a scoring system from 1 to 5, according to degree of severity.

[5] = fifteen days of treatment on a lipogenic diet
[6] = g 1/100 g diet, listed as calcium hydroxycitrate
[7] = g 2/100 g diet, listed as calcium hydroxycitrate

Compound	EXPERIMENTALLY-INDUCED HYPERCHOLESTEROLEMIA, TOTAL CHOLESTEROL ([1]; g 2/100 g diet) [mg/dL]	EXPERIMENTALLY-INDUCED HYPERCHOLESTEROLEMIA, TOTAL CHOLESTEROL ([1]; g 4/100 g diet) [mg/dL]	EXPERIMENTALLY-INDUCED HYPERTRIGYCERIDAEMIA (serum triglycerides) ([2]; g 0.5/Kg) [mg/100 ml]	EXPERIMENTALLY-INDUCED HYPERTRIGYCERIDAEMIA (serum triglycerides) ([2]; g 1/Kg) [mg/100 ml]	MEAN DAILY FOOD CONSUMPTION (g) PER ANIMAL After 15 days ([3]; g 2/100 g diet) [g]	MEAN DAILY FOOD CONSUMPTION (g) PER ANIMAL After 15 days ([3]; g 4/100 g diet) [g]	MEAN DAILY FOOD CONSUMPTION (g) PER ANIMAL Before treatment ([3]; g 2/100 g diet) [g]	MEAN DAILY FOOD CONSUMPTION (g) PER ANIMAL Before treatment ([3]; g 4/100 g diet) [g]	change in daily food consumption (in words) [3, 5]	Final body weight increase (g) AFTER 15 DAY-TREATMENT ([3]; g 2/100 g diet) [g]	SERUM Triglycerides AFTER 15 DAY-TREATMENT ([3]; g 2/100 g diet) [mg/100 ml]	Final body weight increase (g) AFTER 15 DAY-TREATMENT ([3]; g 4/100 g diet) [g]	SERUM Triglycerides AFTER 15 DAY-TREATMENT ([3]; g 4/100 g diet) [mg/100 ml]	severity of atherosclerotic lesions / anti-atherogenic effect (abdominal aorta thickness, Sudan IV staining score 1 to 5) [4]	other results
CC(=O)O[C@H](CC(=O)[O-])C[N+](C)(C)C [Acetyl L-carnitine]	266.7 ± 7.7	255.4 ± 9.4	191.2 ± 9.1	188.4 ± 5.5	18.4 ± 0.44	18.8 ± 0.57	18.6 ± 0.39	18.2 ± 0.41	No changes compared to controls; also recorded: non-significant changes	60.4 ± 7.1	95.81 ± 8.2	60.1 ± 6.1	90.8 ± 7.5		
C[N+](C)(C)C[C@H](O)CC(=O)[O-] [L-carnitine]	270.4 ± 5.1	260.6 ± 4.4	190.4 ± 9.6	190.8 ± 8.6		17.8 ± 0.41	17.3 ± 0.35	18.4 ± 0.61	No changes compared to controls; also recorded: non-significant changes	66.2 ± 4.9	92.55 ± 7.7	64.5 ± 5.1	90.44 ± 6.8	capable of reducing the severity of the atherosclerotic lesions	
CCC(=O)O[C@H](CC(=O)[O-])C[N+](C)(C)C [Propionyl L-carnitine]	250.6 ± 10.1	235.3 ± 9.6	184.2 ± 6.8	180.4 ± 7.9	17.1 ± 0.38	18.5 ± 0.48	17.7 ± 0.56	18.2 ± 0.44	No changes compared to controls; also recorded: non-significant changes	62.4 ± 3.9	88.4 ± 8.16	58.7 ± 3.7	82.7 ± 6.6		Epididimal fat AFTER 15 DAY-TREATMENT ([3]; g 4/100 g diet): 4.0 ± 5.6 g
Calcium hydroxycitrate	180.5 ± 8.1		170.6 ± 8.5	145.5 ± 8.5	15.1 ± 0.46		18.8 ± 0.44		substantial reduction	38.9 ± 3.8	73.66 ± 7.1			capable of reducing the severity of the atherosclerotic lesions	EXPERIMENTALLY-INDUCED HYPERCHOLESTEROLEMIA, TOTAL CHOLESTEROL ([1]; g 1/100 g diet): 196.6 ± 9.6 mg/dL; total cholesterol values (in words) [1]: fair degree of lowering; fructose-induced hypertriglyceridaemia (in words) ([2]; rat, in vivo): reduced; MEAN DAILY FOOD CONSUMPTION (g) PER ANIMAL After 15 days ([3]; g 1/100 g diet): 17.1 ± 0.35 g; MEAN DAILY FOOD CONSUMPTION (g) PER ANIMAL After 15 days [3, 6]: 17.1 g; MEAN DAILY FOOD CONSUMPTION (g) PER ANIMAL After 15 days [3, 7]: 15.1 g; MEAN DAILY FOOD CONSUMPTION (g) PER ANIMAL Before treatment ([3]; g 1/100 g diet): 19.2 ± 0.65 g; MEAN DAILY FOOD CONSUMPTION (g) PER ANIMAL Before treatment [3, 6]: 19.2 g; MEAN DAILY FOOD CONSUMPTION (g) PER ANIMAL Before treatment [3, 7]: 18.8 g; body weight gain (in words) [3, 5]: reduced; Epididimal fat AFTER 15 DAY-TREATMENT ([3]; g 1/100 g diet): 3.91 ± 0.36 g; Final body weight increase (g) AFTER 15 DAY-TREATMENT ([3]; g 1/100 g diet): 46.6 ± 4.1 g; SERUM Triglycerides AFTER 15 DAY-TREATMENT ([3]; g 1/100 g diet): 76.84 ± 6.9 mg/100 ml; Epididimal fat AFTER 15 DAY-TREATMENT ([3]; g 2/100 g diet): 3.32 ± 0.39 g
